Laboratory results reported in publication PMC13576449, “Small-Molecule Activators of PRMT1: Discovery, SAR Analyses, and Proapoptotic Effects in Pancreatic Cancer Cells” (Journal of Medicinal Chemistry, 2026).

Molecular target: T1, FLAG-tagged PRMT4 (Mus musculus, UniProt Q9WVG6)
T1 construct: Full-length FLAG-tagged PRMT protein; made in house; host or cells: Sf9 insect cells (baculovirus)
T1 sequence (Q9WVG6 1-608): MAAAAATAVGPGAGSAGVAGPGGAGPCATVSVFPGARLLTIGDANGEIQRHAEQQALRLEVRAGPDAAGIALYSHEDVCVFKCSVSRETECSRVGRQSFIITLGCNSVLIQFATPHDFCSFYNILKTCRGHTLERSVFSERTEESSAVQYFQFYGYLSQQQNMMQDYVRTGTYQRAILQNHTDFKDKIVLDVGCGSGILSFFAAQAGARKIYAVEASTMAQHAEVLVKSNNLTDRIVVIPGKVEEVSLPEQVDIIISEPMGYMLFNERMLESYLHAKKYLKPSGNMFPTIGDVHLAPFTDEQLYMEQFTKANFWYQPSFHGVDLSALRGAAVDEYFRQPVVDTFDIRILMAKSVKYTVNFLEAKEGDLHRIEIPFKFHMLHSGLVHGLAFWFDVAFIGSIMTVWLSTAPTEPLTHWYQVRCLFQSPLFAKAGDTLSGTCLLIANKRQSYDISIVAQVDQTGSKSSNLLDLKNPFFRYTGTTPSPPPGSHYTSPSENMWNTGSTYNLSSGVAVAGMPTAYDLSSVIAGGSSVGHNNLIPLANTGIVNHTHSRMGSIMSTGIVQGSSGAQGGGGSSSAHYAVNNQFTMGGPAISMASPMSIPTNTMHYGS
Test: Fluorescence-based in vitro PRMT assay (F-PRMT assay), PRMT4
Type: biochemical
Conditions: for Experimental result (PRMT4): vs solvent control = 100%
How it was run: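 Baculovirus/Sf9-expressed FLAG-PRMTs (human PRMT3, PRMT6; mouse PRMT4), anti-FLAG purified and used bead-bound, methylated Bz-Arg-AMC with SAM for 2 h at 37 °C, 1,000 rpm. Technical triplicates; no-SAM negative controls.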

With `CN(C)Cc1cccc(CN/C=C2\C(=O)NC(=O)c3ccccc32)c1.Cl` [TR-07, (Z)-1-[3-({[(1,3-Dioxo-2,3-dihydroisoquinolin-4(1H)-lidene)methyl]amino}methyl)phenyl]-N,N-dimethylmethanaminium chloride] the “effect on PRMT4 activity (in words)” value (100 μM compound) was “neither positively nor negatively influencing”, the “Experimental result (PRMT4)” value (Table 1, 100 μM compound, 2 μM PRMT, n = 3, racemates used) was “PRMT4 n.e. (Compounds, which did not significantly affect the catalytic activity (less than ±6% change or not significant p-value), are marked with [drawing 8] (no effect))” and the “Experimental result (PRMT4)” value (Table S3, 100 µM compound, n≥3) was “n.e. (did not significantly affect the catalytic activity (less than ±6% change or not significant p-value), are marked with n.e. (no effect))”.
